# Test results reported in patent US11697689B2, “Use of antibody against O-acetylated GD2 ganglioside to improve the therapeutic potential of drugs” (OGD2 PHARMA, priority 2016, dated 2023).
# Where two headings read alike, the source gives them in different places.
# Tests used:
# LAN-1 cells [1] = experiment: Incorporation of anti-cancer agents in cells, flow cytometry; assay type: cell-based, human; conditions: 5-FU and cisplatin 1.52 μM, doxorubicin […], mAb 8B6 40 μg/ml, 30 minutes at 37° C.
# Protocol: FIG. 3: Internalization of 5-FU, Cisplatin and doxorubicin in neuroblastoma cells. LAN-1 cells were treated with 5-FU (1.52 μM)—Panel A, or Cisplatin (1.52 μM)—Panel B, or doxorubicin (4.7 μM)—Panels C and D with combinations of isotype-matched negative control mouse IgG3 (40 μg/ml) or anti-OAcGD2 mAb 8B6, anti-OAcGD2 mAb c8B6.14b, anti-OAcGD2 mAb c8B6.15b (40 μg/ml). Anti-cancer agents and mAb were incubated during 30 minutes at 37° C. Neuroblastoma cells were fixed with PFA 4% before FACS acquisition. Positive control was performed by treatment of fixed LAN-1 cells with saponin 0.05% in combination with anti-cancer agents during 30 minutes. Incorporation of anti-cancer agents in tumor cells was assessed by flow cytometry (excitation with a 535 nm laser) and results are expressed in percentage of cells having incorporated anti-cancer agent in total cell population.
# Combinations of anti-OAcGD2 mAb 8B6 with other anti-cancer agents were also assayed on LAN-1 neuroblastoma cell line. In this experiment, incorporation of 5-FU, Cisplatin and doxorubicin within the cells in the presence of mAb 8B6 or CTRL-(IgG) was detected using flow cytometry (excitation with a 535 nm laser). Anti-cancer agents and mAb were incubated during 30 minutes at 37° C.
# [2] = test system: neuroblastoma cell lines NXS2, IMR5, LAN-1 and LAN-5; conditions: NXS2, IMR5, LAN-1, LAN-5
# Protocol: (§1) The antiproliferative activity of the anti-cancer agents was evaluated using the MIT Cell Proliferation Assay Kit (Roche Diagnostic, Indianapolis, USA). The MTT assay is based on the reduction of yellow tetrazolium MIT (3-(4,5-dimethylthiazolyl-2)-2,5-diphenyltetrazolium bromide) by metabolically active cells forming purple formazan crystals. The purple formazan is solubilized with detergent and quantified spectrophotometrically at 570 nm.
# Cells in the log phase of growth were seeded into 96-well (5×10^3 for LAN-1 and NXS2 cells; 1×10^4 for IMR5 and LAN-5 cells) treated plates in 100 μl of complete media. The cells were allowed to attach during an overnight incubation prior to treating with test agents. […] Equivalent culture media volume was added to control wells. Three conditions were used: anti-cancer agent alone, mAb 8B6 alone, mAb 8B6+anti-cancer agent. Cells were exposed to test agents for 48 hours. Following the exposure to test agents, 15 μl of MIT reagent was added to each well. […] The absorbance at 570 nm was measured the following day using a iMark™ Microplate Absorbance Reader plate reader (Bio-Rad). […] Percent of Control values were calculated by dividing the absorbance values for each test well by the No Drug Control average and multiplying by 100.
# Combination data was analyzed using CompuSyn® software to calculate Combination Index values to assess synergy. […]
# LAN-5 cells [3] = experiment: MTT cell proliferation assay, drug with or without mAb 8B6; assay type: cell-based, human; conditions: for EC50: Homo sapiens, 48 hours
# Protocol: Equivalent culture media volume was added to control wells. […] Cells were exposed to test agents for 48 hours.
# NXS2 cells [4] = experiment: OAcGD2 expression (mAb 8B6 binding) after drug exposure, flow cytometry; conditions: isotretinoin 75, topotecan 0.5, doxorubicin 3 μM (Table 1), mean ± SD
# IMR5 cells [5] = experiment: MTT cell proliferation assay, drug with or without mAb 8B6; assay type: cell-based, human; conditions: for EC50: Homo sapiens, 48 hours
# Protocol: as §1
# (§2) Cells in the log phase of growth were seeded into 96-well (5×10^3 for LAN-1 and NXS2 cells; 1×10^4 for IMR5 and LAN-5 cells) treated plates in 100 μl of complete media. The cells were allowed to attach during an overnight incubation prior to treating with test agents. […] Equivalent culture media volume was added to control wells. Three conditions were used: anti-cancer agent alone, mAb 8B6 alone, mAb 8B6+anti-cancer agent. Cells were exposed to test agents for 48 hours. Following the exposure to test agents, 15 μl of MIT reagent was added to each well. The plates were returned to the incubator for four hours. Following the incubation period, kit supplied detergent reagent (100 μl) was added to all wells. The plates were wrapped in plastic wrap to prevent evaporation and allowed to sit at room temperature in the dark overnight. The absorbance at 570 nm was measured the following day using a iMark™ Microplate Absorbance Reader plate reader (Bio-Rad). Assays were performed in quadruplicate and experiments were repeated three times. […] The median-effect equation used by CompuSyn® software derived from the mass-action law principle at equilibrium steady state. […] Percent of Control values were calculated by dividing the absorbance values for each test well by the No Drug Control average and multiplying by 100.
# (§3) Combination data was analyzed using CompuSyn® software to calculate Combination Index values to assess synergy. […] The dosage, fraction affected and molar ratio of compounds tested in combination were entered into the CompuSyn® software for evaluation of the presence/absence of synergy. CompuSyn® assigns a Combination Index value which rates the level of compounds' inhibiting 50% of the cell proliferation. […] See Chou, PHARMACOL.
# (§4) NXS2 cells were grown in DMEM 4.5 g/L de glucose with 10% heat-inactivated fetal calf serum, 2 mM L-Glutamine, 100 units/ml penicillin, and 100 μg/ml streptomycin, at 37° C. in 5% CO2.
# LAN-1 cells [6] = experiment: as above; assay type: cell-based, human; conditions: for EC50: Homo sapiens, 48 hours
# Protocol: as §1, §2, §3, §4
# IMR5 cells [7] = experiment: OAcGD2 expression (mAb 8B6 binding) after drug exposure, flow cytometry; conditions: isotretinoin 40, topotecan 1, doxorubicin 7 μM (Table 1), mean ± SD, n = 3, untreated 14.6 ± 0.4
# LAN-1 cells [8] = experiment: as above; conditions: isotretinoin 40, topotecan 5, doxorubicin 3 μM (Table 1), mean ± SD, n = 3, untreated 12.1 ± 0.1
# [9] = Systemic tolerability, body weight over the treatment period; assay type: in vivo, A/J mice; conditions: same groups and doses as the NXS2 liver metastasis study
# Source text: Mean weight of group of mice (n=10) presented in FIG. 6 at day 0 was defined as 100% weight. Weight in each group remained stable for the period of treatment. Δ, mice treated with mAb 8B6; ◯, mice treated with anti-cancer agent; □, mice treated with chemotherapeutic drug plus mAb 8B6.
# Weight loss is used as a sensitive marker for health monitoring. We therefore performed a parallel analysis of the body weight over the treatment period. […] The body-weight difference between the two groups treated with doxorubicin compared to the non-doxorubicin group, however, fails to be significant during the treatment period (p>0.05).
# LAN-5 cells [10] = experiment: OAcGD2 expression (mAb 8B6 binding) after drug exposure, flow cytometry; conditions: isotretinoin 8, topotecan 1, doxorubicin 5 μM (Table 1), mean ± SD, n = 3, untreated 13.2 ± 0.7
# NXS2 cells [11] = experiment: MTT cell proliferation assay, drug with or without mAb 8B6; assay type: cell-based, murine; conditions: for EC50: Mus musculus, 48 hours
# Protocol: as §1, §2, §3, §4
# [12] = test system: NXS2 neuroblastoma experimental liver metastasis; experiment: Murine NXS2 neuroblastoma experimental liver metastasis model; assay type: in vivo, A/J mice; conditions: day 28 after NXS2 inoculation; mAb 8B6 150 μg cumulative i.v.; isotretinoin 10 mg/kg per os; topotecan 0.36 mg/kg i.p.; doxorubicin 1 mg/kg i.p.; vehicle 2.5±0.18 g; mean±SEM
# Protocol: Mice (n=10/group) were inoculated with 2.5×10^5 NXS2 mouse neuroblastoma cells by i.v. injections. 8B6 mAb treatment was started on day 3 after tumor cell inoculation twice a week for 3 consecutive weeks (cumulative dose=150 μg, A-C). All chemotherapeutic treatments were started at day 10 post-tumor inoculation. Panel A: isotretinoin was given at 10 mg/kg, per os, five times weekly for 2 weeks. […] Panel C: doxorubicin was given by i.p. injections at 1 mg/kg five times weekly for 2 weeks. Mice were euthanized 28 days post-tumor inoculation. Anti-tumor efficacy was evaluated by determining the liver weight on the fresh specimen compared to the mice treated with vehicle only. The liver weight is indicative of hepatic metastasis number. The y-axis starts at 0.8 g corresponding to the average normal liver weight. Data are presented as the mean±SEM.
# We inoculated 2.5×10^5 tumor cells by tail vein in PBS. […] Anti-OAcGD2 mAb 8B6 treatment was started at Day 3 after tumor cells injection. Mice received by i.v. injection twice a week 25 μg mAb 8B6 for 3 consecutive weeks; (day 3, 7, 10, 14, 17 and 21; total dose=150 μg). Isotretinoin was given orally diluted in Ora-Plus© at 10 mg/kg daily for 2 consecutive weeks (on days 10-14 and 17-21). […] Doxorubicin was given by i.p. injection at 1 mg/kg daily for two weeks (on days 10-14 and 17-21). Mice were sacrificed after 28 days post inoculation, and anti-tumor efficacy was evaluated by liver weight of the fresh specimen as well as hepatic metastasis number. • 6.2—Results
# Anti-cancer agents were given at low doses as previously reported in the literature in order to minimize related side effects. Three days after i.v. NSX2 tumor cell inoculation, ten mice were assigned to treatment with single agent, or combination of mAb 8B6 and anti-cancer agents as described previously. On day 28 after tumor cell inoculation, we determined the number of liver metastases and the liver weight after mice euthanasia.
# [13] = test system: GLIO 5 glioblastoma primary cells; experiment: MTT assay, temozolomide with or without mAb 8B6; assay type: cell-based; conditions: Homo sapiens, temozolomide alone, 72 hours
# Protocol: (§5) Tumor specimens were collected from patients with a histologic diagnosis of GBM. Tumors were harvested at the time of surgical resection and immediately put into culture after dissociation of the tumors using the gentleMACs™ Dissociator (Miltenyi) according to the manufacturer's instructions.
# (§6) Equivalent culture media volume was added to control wells. […] Cells were exposed to test agents for 72 hours. Following the exposure to test agents, 15 μl of MTT reagent was added to each well.
# (§7) Cell viability was measured using the MTT assay and half maximal effective concentration (EC50) was calculated as previously disclosed.
# [14] = test system: DUASOII glioblastoma primary cells; experiment: MTT assay, temozolomide with or without mAb 8B6; assay type: cell-based; conditions: Homo sapiens, temozolomide alone, 72 hours
# Protocol: as §5, §6, §7
# [15] = test system: HARCI glioblastoma primary cells; experiment: MTT assay, temozolomide with or without mAb 8B6; assay type: cell-based; conditions: Homo sapiens; HARCl; temozolomide alone; 72 hours
# Protocol: as §5, §6, §7
# [16] = test system: AMBMa glioblastoma primary cells; experiment: MTT assay, temozolomide with or without mAb 8B6; assay type: cell-based; conditions: Homo sapiens, temozolomide alone, 72 hours
# Protocol: as §5, §6, §7
# [17] = test system: GUITh glioblastoma primary cells; experiment: MTT assay, temozolomide with or without mAb 8B6; assay type: cell-based; conditions: Homo sapiens, temozolomide alone, 72 hours
# Protocol: as §5, §6, §7
# [18] = test system: DUGAn glioblastoma primary cells; experiment: MTT assay, temozolomide with or without mAb 8B6; assay type: cell-based; conditions: Homo sapiens, temozolomide alone, 72 hours
# Protocol: as §5, §6, §7
# [19] = LA-N-5, drug alone, read-out: EC50
# [20] = LA-N-5, with mAb 8B6 40 μg/ml, read-out: EC50 with mAb 8B6
# [21] = IMR-5, drug alone, read-out: EC50
# [22] = IMR-5, with mAb 8B6 40 μg/ml, read-out: EC50 with mAb 8B6
# [23] = LAN1, drug alone, read-out: EC50
# [24] = LAN1, with mAb 8B6 40 μg/ml, read-out: EC50 with mAb 8B6
# [25] = with mAb 8B6 40 μg/ml, read-out: EC50 with mAb 8B6
SMILES,cells positive for the anti-cancer agent when incubated with mAb 8B6 versus agent alone and CTRL-(IgG) (LAN-1 cells [1]),EC50 (LAN-5 cells [3]; [19]) [µM],EC50 (LAN-5 cells [3]; [20]) [µM],"Expression level of OAcGD2 (MFI ratio mAb 8B6 / mAb 7H2) after 48 hours exposure (NXS2 cells [4]; n = 3, untreated 7.3 ± 0.9)",EC50 (IMR5 cells [5]; [21]) [µM],EC50 (IMR5 cells [5]; [22]) [µM],EC50 (LAN-1 cells [6]; [23]) [µM],EC50 (LAN-1 cells [6]; [24]) [µM],Expression level of OAcGD2 (MFI ratio mAb 8B6 / mAb 7H2) after 48 hours exposure (IMR5 cells [7]),Expression level of OAcGD2 (MFI ratio mAb 8B6 / mAb 7H2) after 48 hours exposure (LAN-1 cells [8]),body weight over the treatment period [9],Expression level of OAcGD2 (MFI ratio mAb 8B6 / mAb 7H2) after 48 hours exposure (LAN-5 cells [10]),"EC50 (NXS2 cells [11]; drug alone, read-out: EC50) [µM]",EC50 (NXS2 cells [11]; [25]) [µM],mean liver weight [12] [g],further results
"O=c1[nH]cc(F)c(=O)[nH]1 [5-FU, 5-Fluorouracil]",more cells were positive,,,,,,,,,,,,,,,
"COc1cccc2c1C(=O)c1c(O)c3c(c(O)c1C2=O)C[C@@](O)(C(=O)CO)C[C@@H]3O[C@H]1C[C@H](N)[C@H](O)[C@H](C)O1 [Doxorubicin, doxorubicin]",more cells were positive,2.09,0.13,6.48 ± 2.28,6.3,0.01,4.67,0.014,15.24 ± 0.21,13.76 ± 1.8,a loss of body weight after day 17,14.36 ± 1.4,2.75,0.016,1.75 ± 0.09,"median combination index values across the tested neuroblastoma cell lines [2]: ≤ 0.30; Combination index 50 Values (LAN-5 cells [3]; CompuSyn, below 1 = synergy): 0.16; Expression level of OAcGD2 (MFI ratio mAb 8B6 / mAb 7H2) after 48 hours exposure (NXS2 cells [4]; n = 3, untreated 7.3 ± 0.9, listed as doxorubicin): remained unchanged; Combination index 50 Values (IMR5 cells [5]; CompuSyn, below 1 = synergy): 0.10; Combination index 50 Values (LAN-1 cells [6]; CompuSyn, below 1 = synergy): 0.05; Combination index 50 Values (NXS2 cells [11]; CompuSyn, below 1 = synergy): 0.30"
"CC1=C(/C=C/C(C)=C/C=C/C(C)=C\C(=O)O)C(C)(C)CCC1 [Isotretinoin, isotretinoin]",,37.2,31.3,7.5 ± 1.1,32.9,24,7.4,4.3,19.2 ± 0.8,12.0 ± 0.1,no loss of body weight,16.8 ± 0.7,75.7,59.3,2.0 ± 0.24,"Expression level of OAcGD2 (MFI ratio mAb 8B6 / mAb 7H2) after 48 hours exposure (NXS2 cells [4]; n = 3, untreated 7.3 ± 0.9, listed as isotretinoin): remained unchanged"
"CC[C@@]1(O)C(=O)OCc2c1cc1n(c2=O)Cc2cc3c(CN(C)C)c(O)ccc3nc2-1 [Topotecan, topotecan]",,12.4,0.004,,0.011,0.007,0.771,0.015,,,no loss of body weight,,0.45,0.15,1.22 ± 0.09,
N.N.[Cl][Pt][Cl] [cisplatin],more cells were positive,,,,,,,,,,,,,,,
Cn1nnc2c(C(N)=O)ncn2c1=O [temozolomide],,,,,,,,,,,,,,,,EC50 [13]: 1590 µM; EC50 [14]: 584 µM; EC50 [15]: 13100 µM; EC50 [16]: 784 µM; EC50 [17]: 3160 µM; EC50 [18]: 1120 µM
